Reference: patent US20210276971A1, “TRIAZAMACROCYCLE-DERIVED CHELATOR COMPOSITIONS FOR COORDINATION OF IMAGING AND THERAPY METAL IONS AND METHODS OF USING SAME” (The Research Foundation for The State University of New York, priority 2018, published 2021)

Key:
[1] = EDTA challenge of ^44Sc complexes (10× excess EDTA, 37° C.); assay type: physicochemical; conditions: for % complex stability: EDTA, 10× eq, 37° C.; for kinetic inertness (transchelation): presence of 10×EDTA
Protocol: Challenge experiments. To measure relative complex stability, 10 uL of ligand solution at 100000 ng/mL was added to 100 uL EDTA to produce 10× excess EDTA. Mixtures were incubated at 37° C. for 1 h. To evaluate plasma stability, 10 uL of ligand solution at 100000 ng/mL added to 50 uL mouse plasma. Incubated at 37° C. for 1 h. Tubes were intermittently vortexed and 2 uL was removed at the designated timepoints and spotted onto TLC plates.

[2] = Plasma stability of ^44Sc complexes (37° C.); assay type: in vitro ADME, Rat; conditions: for % complex stability: Rat Plasma, 37°
[3] = HPLC check of interconversion of metal-complex diastereomers; assay type: physicochemical; conditions: HPLC-separated peaks of Sc(III)/Lu(III) complexes, reinjected
Protocol: FIG. 13: Sc-Overlay and Lu-Overlay—A stock solution of PICAGA (2 mg/mL) in DI water was prepared. 1.1 equivalents of metal added to the ligand. ScCl3.6H2O or Lu(ClO4)3.6H2O. pH was adjusted to 6-7 with 5 M NaOH. Complex solutions were injected on HPLC. Each peak associated with the PICAGA (5.7 and 5.9 min) was collected and reinjected at 20 min.
A direct DO3A-monoamide DUPA conjugate analogue was also synthesized. The fully assembled conjugates DOTA-DUPA and picaga-DUPA were fully deprotected and characterized using ^1H-, ^13C-NMR and mass spectrometry. Following complete characterization, the non-radioactive scandium complexes were formed and characterized using HPLC-analysis. As the glutarate arm is introduced as the pure S-entantiomer, where the alpha carbon retains the chiral alpha carbon and subsequently introduces chirality to the ligand.

| % complex stability ([1]; t = 0) [%] | % complex stability ([1]; t = 10 min) [%] | % complex stability ([1]; t = 30 min) [%] | % complex stability ([1]; t = 60 min) [%] | % complex stability ([2]; t = 10 min) [%] | % complex stability ([2]; t = 30 min) [%] | % complex stability ([2]; t = 60 min) [%] | interconversion of complex diastereomers [3] | interconversion of complex diastereomers ([3]; listed as picaga-DUPA) | kinetic inertness (transchelation) [1] | kinetic inertness (transchelation) ([2]; rat plasma) | SMILES |
| --- | --- | --- | --- | --- | --- | --- | --- | --- | --- | --- | --- |
| 9.41 | 74.4 ± 0.4 | 73.3 ± 0.5 | 74.7 ± 0.4 | 74.8 ± 1.8 | 74.4 ± 0.7 | 75.5 ± 0.9 |  |  |  |  | O=C(O)CN1CCN(CC(=O)O)CCN(CC(=O)O)CCN(CC(=O)O)CC1 [DOTA, reference compound] |
|  |  |  |  |  |  |  | limited interconversion | do not interconvert even after 12 hours |  |  | O=C(O)CC[C@H](NC(=O)N[C@@H](CCC(=O)NCCCCCNC(=O)CCC(C(=O)O)N1CCN(CC(=O)O)CCN(Cc2cccc(C(=O)O)n2)CC1)C(=O)O)C(=O)O (stereo in doubt) [PICAGA, 2-{3-[(R)-1-Carboxy-4-[5-(4-carboxy-4-{7-(carboxymethyl)-4-[(6-carboxy-2-pyridyl)methyl]-1,4,7-triazonan-1-yl}butyrylamino)pentylamino]-4-oxobutyl]ureido}glutaric acid] |
| 91.4 | 91.5 ± 0.8 | 91.4 ± 0.8 | 90.5 ± 0.6 | 90.1 ± 0.8 | 91.0 ± 0.2 | 91.6 ± 0.3 |  |  | no detectable transchelation | no detectable transchelation | O=C(O)CN1CCN(CC(=O)O)CCN(Cc2cccc(C(=O)O)n2)CC1 [MONOPIC, 6-{[4,7-Bis(carboxymethyl)-1,4,7-triazonan-1-yl]methyl}-2-pyridinecarboxylic acid] |
| 90.2 | 77.4 ± 5.2 | 67.8 ± 0.9 | 51.5 ± 0.4 | 98.9 ± 0.3 | 98.3 ± 0.1 | 97.4 ± 0.4 |  |  | diminished complex inertness |  | O=C(O)CN1CCN(Cc2cccc(C(=O)O)n2)CCN(Cc2cccc(C(=O)O)n2)CC1 [NO1A2PIC] |
